# Measurements reported in patent US9249147B2, “Tyrosine kinase inhibitors” (CHEMBRIDGE CORPORATION, priority 2008, dated 2016).
# Where two headings read alike, the source gives them in different places.
# How the values were obtained:
# [1] = Aqueous Solubility (PBS, pH 7.4); assay type: physicochemical; settings: pH 7.4, 2.0E−04 M; for solubility: pH 7.4, PBS
# [2] = Caco-2 (TC7) A-B Permeability test (pH 6.5/7.4); settings: human, A-B Permeability (TC7, pH 6.5/7.4), test concentration 1.0E−05 M
# hERG = hERG (Homo sapiens, UniProt Q12809); test: hERG Inhibition (Table 6E); assay type: cell-based; set-up: expressed in transfected cells; unit not given here
# hERG, sequence (Q12809 whole entry): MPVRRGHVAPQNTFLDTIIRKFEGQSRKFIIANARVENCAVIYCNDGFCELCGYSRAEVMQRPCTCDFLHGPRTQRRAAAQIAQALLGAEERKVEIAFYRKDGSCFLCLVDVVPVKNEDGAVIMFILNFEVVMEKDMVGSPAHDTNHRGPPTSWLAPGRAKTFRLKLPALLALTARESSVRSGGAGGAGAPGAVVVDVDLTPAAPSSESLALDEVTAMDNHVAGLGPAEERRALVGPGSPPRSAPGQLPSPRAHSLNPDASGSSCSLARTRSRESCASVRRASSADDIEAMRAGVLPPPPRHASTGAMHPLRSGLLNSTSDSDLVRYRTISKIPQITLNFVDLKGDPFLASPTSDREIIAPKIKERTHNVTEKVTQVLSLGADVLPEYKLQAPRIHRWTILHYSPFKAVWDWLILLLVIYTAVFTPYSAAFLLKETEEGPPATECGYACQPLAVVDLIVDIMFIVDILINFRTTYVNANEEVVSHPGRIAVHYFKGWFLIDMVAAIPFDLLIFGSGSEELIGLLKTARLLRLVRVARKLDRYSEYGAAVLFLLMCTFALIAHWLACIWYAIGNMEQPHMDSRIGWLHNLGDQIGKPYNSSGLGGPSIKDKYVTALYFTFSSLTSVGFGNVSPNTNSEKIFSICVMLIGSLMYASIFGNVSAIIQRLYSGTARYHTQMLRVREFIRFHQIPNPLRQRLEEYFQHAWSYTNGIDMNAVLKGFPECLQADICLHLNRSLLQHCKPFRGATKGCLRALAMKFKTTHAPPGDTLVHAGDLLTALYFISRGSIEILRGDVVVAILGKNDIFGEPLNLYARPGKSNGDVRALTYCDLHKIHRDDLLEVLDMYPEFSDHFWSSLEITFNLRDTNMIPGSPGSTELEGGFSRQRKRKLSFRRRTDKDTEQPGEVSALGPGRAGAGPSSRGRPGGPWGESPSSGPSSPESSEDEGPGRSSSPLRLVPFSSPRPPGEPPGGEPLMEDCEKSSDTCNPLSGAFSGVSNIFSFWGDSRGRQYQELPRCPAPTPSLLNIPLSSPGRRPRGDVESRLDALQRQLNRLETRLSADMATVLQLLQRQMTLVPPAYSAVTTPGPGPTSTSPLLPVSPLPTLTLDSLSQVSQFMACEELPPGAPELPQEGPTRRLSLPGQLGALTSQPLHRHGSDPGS
# Description: Compound (II) was initially tested at 1 μM concentration using a standard patch clamp protocol (Cerep ADMET Study 13170). The hERG channel was expressed in a human embryonic kidney (HEK293) cell line that lacks endogenous hERG channels. […] We have retested compound (II) in hERG assay in a range of lower concentrations to estimate IC50 of hERG inhibition more precisely (Qpatch 16 automated whole-cell patch clamp protocol in CHO-K1 cell line stably expressing hERG, Cerep hERG Study 13292). […] This kind of potency in hERG inhibition should not represent a significant clinical problem since the high degree of hERG inhibition would occur only at the compound concentrations above the expected therapeutic levels.
# IRK = target: T1, IRK (Homo sapiens, UniProt P06213); test: IRK (insulin receptor kinase) assay; assay type: biochemical; settings: Table 1; read-out: IRK IC50
# T1 construct: 6×His- or GST-tagged kinase domain fragments of the corresponding RTKs expressed in baculovirus system; host or cells: baculovirus system
# T1 sequence (P06213 1023-1298 limits assumed): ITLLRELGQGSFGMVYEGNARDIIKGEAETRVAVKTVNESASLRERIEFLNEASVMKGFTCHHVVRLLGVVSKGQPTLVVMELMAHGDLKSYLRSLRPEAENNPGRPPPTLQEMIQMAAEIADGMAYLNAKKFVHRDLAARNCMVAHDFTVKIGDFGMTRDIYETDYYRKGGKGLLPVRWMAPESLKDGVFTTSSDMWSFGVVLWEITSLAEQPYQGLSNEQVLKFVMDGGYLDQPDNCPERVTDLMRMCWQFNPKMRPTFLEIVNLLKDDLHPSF
# Description: (§1) To determine inhibition of several tyrosine kinases, such as IGF1R, InsR, Alk, TrkA and Jak2, kinase assays are conducted using either Kinase-Glo (Promega) or AlphaScreen (PerkinElmer) kinase assay platforms. The Kinase-Glo Luminescent Kinase Assay is a homogeneous method for measuring kinase activity by determining the amount of ATP remaining after a kinase reaction. The luminescent signal is proportional to the amount of ATP and inversely proportional to the amount of kinase activity. Tyrosine kinase PT66 AlphaScreen Assay is a high-sensitivity homogeneous, anti-phosphotyrosine antibody-mediated luminescent proximity method measuring incorporation of phosphate in synthetic poly(Glu-Tyr) substrate. The kinase preparations used consist of purified recombinant, 6×His- or GST-tagged kinase domain fragments of the corresponding RTKs expressed in baculovirus system.
# (§2) Compounds with a range of concentrations 40 μM, 20 μM, 10 μM, 5 μM, 2.5 μM, 1.25 μM, 0.625 μM, 0.3125 μM, 0.15625 μM and 0.078125 μM were incubated with NPM-ALK, which was produced in insect cells as a 6×HIS-tagged fusion protein and purified using nickel-charged resin chromatography, for 30 minutes at RT in the presence of 10 μM ATP and 7.0 ng biotinylated poly-GT. A 1:1 mixture of […] and donor beads was then added to the reaction and incubated for an additional 60 minutes at RT. The assay was conducted on a MultiPROBE liquid handling workstation (PerkinElmer) in a 384-well plate format with a total reaction volume of 40 μL per well. Working stocks of all compounds were dissolved in 100% DMSO and serial dilutions of the compounds were performed using kinase buffer (50 mM Tris-HCl (pH 7.5), 5 mM MgCl2, 5 mM MnCl2, 2 mM DTT (added freshly before use), 0.01% Tween-20) containing 5% DMSO. […] Data were collected as optical readings at 520-680 nm on a Fusion™ microplate analyzer (PerkinElmer), and IC50 and Ki values calculated using PRISM3.0 software (GraphPad Software, Inc., San Diego, Calif.). The same assay was also used with minor modifications to assess the IC50 and Ki values for selected compounds against five other tyrosine kinases (IRK, IGF1R, Flt3, Abl, Src), all of which were purchased from commercial vendors. PolyGT-Biotin was bought from CIS Biointernational Cat. #61GT0BLD; ATP—from Sigma Cat. # A7699; sodium orthovanadate—from Sigma Cat. #S-6508; phosphotyrosine (PT66) assay kit from PerkinElmer Cat. #6760602M; automated workstation tips (20 μL): PerkinElmer Cat. #6000657; and OptiPlate-384 (white)—from PerkinElmer Cat. #6007299.
# IGF1R = target: T2, IGF1R (Homo sapiens, UniProt P08069); test: IGF1R kinase assay; assay type: biochemical; settings: Table 1; read-out: IGF1R IC50
# T2 construct: 6×His- or GST-tagged kinase domain fragments of the corresponding RTKs expressed in baculovirus system; host or cells: baculovirus system
# T2 sequence (P08069 999-1274 limits assumed): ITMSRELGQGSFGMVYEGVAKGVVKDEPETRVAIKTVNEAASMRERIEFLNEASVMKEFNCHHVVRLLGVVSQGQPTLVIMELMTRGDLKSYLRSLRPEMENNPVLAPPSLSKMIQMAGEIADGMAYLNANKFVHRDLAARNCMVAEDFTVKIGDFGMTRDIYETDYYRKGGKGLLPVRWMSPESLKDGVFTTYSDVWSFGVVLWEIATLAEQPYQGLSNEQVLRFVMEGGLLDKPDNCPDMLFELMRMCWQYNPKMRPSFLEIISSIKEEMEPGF
# Description: as §1, §2
# ALK = ALK (Homo sapiens, UniProt Q9UM73); test: ALK kinase assay (Kinase-Glo / AlphaScreen, purified NPM-ALK); assay type: biochemical; set-up: fused to the complete intracytoplasmic portion of ALK containing the functional tyrosine kinase domain; 6xHis; made in house; host or cells: insect cells; the other entry of the earlier key: NPM1 (P06748, Nucleophosmin); settings: Table 1; read-out: ALK IC50
# ALK, sequence (Q9UM73 with tags, fused parts or gaps): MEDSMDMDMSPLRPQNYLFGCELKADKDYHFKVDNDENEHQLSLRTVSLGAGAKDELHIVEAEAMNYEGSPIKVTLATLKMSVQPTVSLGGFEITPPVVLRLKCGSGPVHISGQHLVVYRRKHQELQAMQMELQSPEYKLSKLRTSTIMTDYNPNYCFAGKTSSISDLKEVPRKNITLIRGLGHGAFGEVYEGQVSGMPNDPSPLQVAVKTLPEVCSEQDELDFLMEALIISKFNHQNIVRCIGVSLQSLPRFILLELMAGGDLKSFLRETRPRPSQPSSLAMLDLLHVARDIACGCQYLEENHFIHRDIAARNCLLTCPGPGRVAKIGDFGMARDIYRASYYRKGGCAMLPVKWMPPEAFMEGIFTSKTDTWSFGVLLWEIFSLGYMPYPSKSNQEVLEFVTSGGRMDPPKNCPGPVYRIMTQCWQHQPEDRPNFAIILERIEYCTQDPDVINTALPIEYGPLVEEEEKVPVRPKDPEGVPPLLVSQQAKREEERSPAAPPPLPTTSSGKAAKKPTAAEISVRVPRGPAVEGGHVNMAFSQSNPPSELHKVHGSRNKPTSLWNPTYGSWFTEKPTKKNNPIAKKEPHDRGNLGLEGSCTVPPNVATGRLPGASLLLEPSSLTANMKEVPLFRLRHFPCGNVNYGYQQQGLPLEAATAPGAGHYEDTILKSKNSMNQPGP
# [3] = Tables 9C, 9D, read-out: Solubility Mean
# [4] = individual data, read-out: Solubility 1st/2nd
# [5] = Caco-2, pH 6.5, Mean Recovery, mean of n = 2
# [6] = Caco-2, pH 6.5, Permeability 1st, 1st replicate
# [7] = Caco-2, pH 6.5, Permeability 2nd, 2nd replicate
# [8] = Caco-2, pH 6.5, Present Recovery 1st, 1st replicate
# [9] = Caco-2, pH 6.5, Present Recovery 2nd, 2nd replicate
# [10] = Caco-2, pH 6.5, Mean Permeability, mean of n = 2
smiles,measurement,setting,value
O=C(CCCN1CCC(O)(c2ccc(Cl)cc2)CC1)c1ccc(F)cc1 [Haloperidol],Solubility 1st/2nd,[1]; individual data,61.29 μm
same,solubility,[1]; [3],61.9 µM
same,solubility,[1]; [4],62.5 µM
COc1cc2c(c(OC)c1OC)-c1ccc(OC)c(=O)cc1[C@@H](NC(C)=O)CC2 [Colchicine],recovery at 10 µM,[2]; [5],97%
same,Papp A→B at 10 µM,[2]; [6],0.9 ×10⁻⁶ cm/s
same,Papp A→B at 10 µM,[2]; [7],0.05 ×10⁻⁶ cm/s
same,recovery at 10 µM,[2]; [8],99%
same,recovery at 10 µM,[2]; [9],65%
Cc1ccc(F)cc1C[C@H](C)Nc1cc[nH]c(=O)c1-c1nc2cc3c(cc2[nH]1)C(=O)N(CCN1CCCC1)C3 [drawing 364],hERG Inhibition,hERG; 25,22.5
same,hERG Inhibition,hERG; 100,28
same,hERG Inhibition,hERG; 1000,50.4
same,hERG Inhibition,hERG; column head 500,38.5
C[C@@H](Cc1cc(F)cc(F)c1F)Nc1cc[nH]c(=O)c1-c1nc2cc3c(cc2[nH]1)CN(CCN1CCCC1)C3=O [drawing 366],hERG Inhibition,hERG; 25,6.00
same,hERG Inhibition,hERG; 100,9.7
same,hERG Inhibition,hERG; 1000,7.30
same,hERG Inhibition,hERG; column head 500,7.10
same,hERG Inhibition,hERG; column head 3000,33.20
same,hERG Inhibition,hERG; column head 5000,57.80
C[C@@H](Cc1cc(F)cc(F)c1F)Nc1cc[nH]c(=O)c1-c1nc2cc3c(cc2[nH]1)CN(CCN(C)C)C3=O [drawing 367],hERG Inhibition,hERG; 25,6.60
same,hERG Inhibition,hERG; 100,10.20
same,hERG Inhibition,hERG; column head 500,13.10
"CC(=O)N1CCN(c2ccc(OCC3COC(Cn4ccnc4)(c4ccc(Cl)cc4Cl)O3)cc2)CC1 (stereo not drawn) [Ketoconazole, ketoconazole, reference compound]",Solubility 1st/2nd,[1]; individual data,109.58 μm
same,solubility,[1]; [3],108 µM
same,solubility,[1]; [4],107 µM
CC(CCc1ccccc1)NCC(O)c1ccc(O)c(C(N)=O)c1 (stereo not drawn) [Labetalol],Papp A→B at 10 µM,[2]; [10],6 ×10⁻⁶ cm/s
same,recovery at 10 µM,[2]; [5],90%
same,Papp A→B at 10 µM,[2]; [6],5.8 ×10⁻⁶ cm/s
same,Papp A→B at 10 µM,[2]; [7],6.21 ×10⁻⁶ cm/s
same,recovery at 10 µM,[2]; [8],91%
same,recovery at 10 µM,[2]; [9],88%
CNC(=C[N+](=O)[O-])NCCSCc1ccc(CN(C)C)o1 [Ranitidine],Papp A→B at 10 µM,[2]; [10],0.6 ×10⁻⁶ cm/s
same,recovery at 10 µM,[2]; [5],95%
same,Papp A→B at 10 µM,[2]; [6],0.58 ×10⁻⁶ cm/s
same,Papp A→B at 10 µM,[2]; [7],0.64 ×10⁻⁶ cm/s
same,recovery at 10 µM,[2]; [8],82%
same,recovery at 10 µM,[2]; [9],109%
O=C1NC(=O)C(c2ccccc2)(c2ccccc2)N1 [Phenytoin],Solubility 1st/2nd,[1]; individual data,86.44 μm
same,solubility,[1]; [3],87 µM
same,solubility,[1]; [4],87.7 µM
Cc1ccc(F)cc1C[C@H](C)Nc1cc[nH]c(=O)c1-c1nc2cc3c(cc2[nH]1)CN(CCN(C)C)C3=O [drawing 365],hERG Inhibition,hERG; 25,5.8
same,hERG Inhibition,hERG; 100,8.8
same,hERG Inhibition,hERG; 1000,6.8
same,hERG Inhibition,hERG; column head 500,11.1
same,hERG Inhibition,hERG; column head 3000,27.1
same,hERG Inhibition,hERG; column head 5000,50.0
Cc1ccc(C(F)(F)F)cc1C[C@H](C)Nc1cc[nH]c(=O)c1-c1nc2cc3c(cc2[nH]1)CN(CCN1CCOCC1)C3=O,IC50,IRK,> 1000 nM
same,IC50,IGF1R,> 1000 nM
same,IC50,ALK,250 to 1000 nM
Cc1ccc(C(F)(F)F)cc1C[C@H](C)Nc1cc[nH]c(=O)c1-c1nc2cc3c(cc2[nH]1)CN(CCN1CCCC1)C3=O,IC50,IRK,250 to 1000 nM
same,IC50,IGF1R,> 1000 nM
same,IC50,ALK,> 1000 nM
Cc1ccc(C(F)(F)F)cc1C[C@H](C)Nc1cc[nH]c(=O)c1-c1nc2cc3c(cc2[nH]1)CN(CCN(C)C)C3=O,IC50,IRK,250 to 1000 nM
same,IC50,IGF1R,100 to 250 nM
same,IC50,ALK,250 to 1000 nM
C[C@H](Cc1cccs1)Nc1cc[nH]c(=O)c1-c1nc2cc3c(cc2[nH]1)C(=O)N(CCCN1CCCC1)C3=O,IC50,IRK,> 1000 nM
same,IC50,IGF1R,> 1000 nM
same,IC50,ALK,> 1000 nM
C[C@@H](Cc1cc(F)ccc1Cl)Nc1cc[nH]c(=O)c1-c1nc2cc3c(cc2[nH]1)CN(CCN1CCCC1)C3=O,IC50,IRK,250 to 1000 nM
same,IC50,IGF1R,250 to 1000 nM
same,IC50,ALK,100 to 250 nM
CC(Cc1cccs1)Nc1cc[nH]c(=O)c1-c1nc2cc3c(cc2[nH]1)C(=O)N(C1CCN(C)CC1)C3=O (stereo not drawn),IC50,IRK,> 1000 nM
same,IC50,IGF1R,> 1000 nM
same,IC50,ALK,250 to 1000 nM
CC(Cc1ccccc1F)Nc1cc[nH]c(=O)c1-c1nc2cc3c(cc2[nH]1)C(=O)N(CCCN1CCCC1)C3 (stereo not drawn),IC50,IRK,> 1000 nM
same,IC50,IGF1R,100 to 250 nM
same,IC50,ALK,100 to 250 nM
Cc1ccc(N(C)C)cc1C[C@H](C)Nc1cc[nH]c(=O)c1-c1nc2cc3c(cc2[nH]1)CN(CCN1CCCC1)C3=O,IC50,IRK,> 1000 nM
same,IC50,IGF1R,> 1000 nM
same,IC50,ALK,> 1000 nM
